Experimental data published in US9783537B2, “3-(4-ethylnylphenyl) pyridopyrimidinone compounds and process for preparation thereof useful as potential anticancer agents” (Council of Scientific & Industrial Research, priority 2013, dated 2017).
Read-outs that look alike come from different tables or passages of the source.

What was measured:
[1] = test system: HOP-92; assay: SRB 48 h growth assay, Non-small Cell Lung HOP-92; type: cell-based, human; details: HOP-92, Non-small Cell Lung
[2] = test system: ACHN; assay: SRB 48 h growth assay, Renal ACHN; type: cell-based, human; details: for GI50: Homo sapiens
[3] = test system: six breast cancer cell line (MCF-7, MDA-MB-231/ATCC, HS 578T, TD-47D, MDA-MB-468 and BT-549); assay: in vitro anticancer activity, breast panel; type: cell-based; details: Homo sapiens; six breast cancer cell lines, exposure at least 48 h; read-out: GI50, range over panel
[4] = test system: seven ovarian cancer cell lines (IGROV1, OVCAR-3, OVCAR-4, OVCAR-5, OVCAR-8, NCI/ADR-RES and SK-OV-3); assay: in vitro anticancer activity, ovarian panel; type: cell-based; details: Homo sapiens, exposure at least 48 h, read-out: GI50, range over panel
[5] = test system: K-562; assay: SRB 48 h growth assay, Leukemia K-562; type: cell-based, human
[6] = test system: SK-OV-3; assay: SRB 48 h growth assay, Ovarian SK-OV-3; type: cell-based, human; details: SK-OV-3, Ovarian
[7] = test system: six CNS cancer cell line (SF-268, SF-295, SF-539, SNB-19, SNB-75 and U251); assay: in vitro anticancer activity, CNS panel; type: cell-based; details: Homo sapiens; six CNS cancer cell lines, exposure at least 48 h; read-out: GI50, range over panel
[8] = test system: UACC-257; assay: SRB 48 h growth assay, Melanoma UACC-257; type: cell-based, human; details: UACC-257, Melanoma
[9] = test system: NCI-H226; assay: SRB 48 h growth assay, Non-small Cell Lung NCI-H226; type: cell-based, human
[10] = test system: U251; assay: SRB 48 h growth assay, CNS U251; type: cell-based, human
[11] = test system: A498; assay: SRB 48 h growth assay, Renal A498; type: cell-based, human; details: for GI50: Homo sapiens
[12] = test system: 786-0; assay: SRB 48 h growth assay, Renal 786-0; type: cell-based, human; details: 786-0, Renal; for GI50: Homo sapiens
[13] = test system: T-47D; assay: SRB 48 h growth assay, Breast T-47D; type: cell-based, human; details: for GI50: Homo sapiens, T47D
[14] = test system: DU-145; assay: SRB 48 h growth assay, Prostate DU-145; type: cell-based, human; details: DU-145, Prostate; for GI50: Homo sapiens
[15] = test system: seven colon cancer cell line (COLO 205, HCC-2998, HCT-116, HCT-15, HT29, KM12 and SW-620); assay: in vitro anticancer activity, colon panel; type: cell-based; details: Homo sapiens; seven colon cancer cell lines, exposure at least 48 h; read-out: GI50, range over panel
[16] = test system: HOP-62; assay: SRB 48 h growth assay, Non-small Cell Lung HOP-62; type: cell-based, human; details: HOP-62, Non-small Cell Lung; for GI50: Homo sapiens
[17] = test system: NCI-H460; assay: SRB 48 h growth assay, Non-small Cell Lung NCI-H460; type: cell-based, human; details: for GI50: Homo sapiens
[18] = test system: IGROV1; assay: SRB 48 h growth assay, Ovarian IGROV1; type: cell-based, human
[19] = test system: OVCAR-3; assay: SRB 48 h growth assay, Ovarian OVCAR-3; type: cell-based, human; details: OVCAR-3, Ovarian
[20] = test system: NCI-H322M; assay: SRB 48 h growth assay, Non-small Cell Lung NCI-H322M; type: cell-based, human
[21] = test system: MDA-MB-468; assay: SRB 48 h growth assay, Breast MDA-MB-468; type: cell-based, human; details: MDA-MB-468, Breast
[22] = test system: OVCAR-4; assay: SRB 48 h growth assay, Ovarian OVCAR-4; type: cell-based, human; details: OVCAR-4, Ovarian
[23] = test system: eight renal cancer cell line (786-0, A498, ACHN, CAKI-1, SN12C, TK-10, UO-31 and RXF 393); assay: in vitro anticancer activity, renal panel; type: cell-based; details: Homo sapiens; eight renal cancer cell lines, exposure at least 48 h; read-out: in vitro anticancer activity, range over panel
[24] = test system: NCI/ADR-RES; assay: SRB 48 h growth assay, Ovarian NCI/ADR-RES; type: cell-based, human
[25] = test system: SR; assay: SRB 48 h growth assay, Leukemia SR; type: cell-based, human; details: Homo sapiens
[26] = test system: SK-MEL-2; assay: SRB 48 h growth assay, Melanoma SK-MEL-2; type: cell-based, human; details: SK-MEL-2, Melanoma; for GI50: Homo sapiens
[27] = Homo sapiens, read-out: Growth Inhibition GI50
[28] = Homo sapiens, read-out: Log10 GI50 (converted)
[29] = Homo sapiens, read-out: Log10 LC50 (converted)
[30] = read-out: Growth Inhibition GI50
[31] = read-out: Log10 GI50 (converted)

C#Cc1ccc(-n2c(/C=C/c3ccc4ccccc4n3)nc3ncccc3c2=O)cc1 [4t, (E)-3-(4-Ethynylphenyl)-2-(2-(quinolin-2-yl)vinyl)pyrido[2,3-d]pyrimidin-4(3H)-one] was tested, and the “Log10 TGI50” value [1] was −5.01, the GI50 [1, 27] was 180 nM and the GI50 [1, 28] was 186 nM. The CC50 [1, 29] was greater than 100000 nM, the “Log10 TGI50” value [2] was −5.89 and the GI50 [2, 30] was 320 nM. For the same molecule, the GI50 [2, 31] was 324 nM, the GI50 [3] was 2310 to 11400 nM and the GI50 [4] was 2410 to 32300 nM. For the same molecule, the GI50 ([5]; Homo sapiens, K562, K-562, Leukemia, read-out: Growth Inhibition GI50) was 330 nM, the GI50 ([5]; Homo sapiens, K562, K-562, Leukemia, read-out: Log10 GI50 (converted)) was 331 nM and the CC50 ([5]; Homo sapiens, K562, K-562, Leukemia, read-out: Log10 LC50 (converted)) was greater than 100000 nM. For the same molecule, the “Log10 TGI50” value ([5]; K-562, Leukemia) was greater than −4.00, the GI50 [6, 27] was 320 nM and the GI50 [6, 28] was 324 nM. The CC50 [6, 29] was greater than 100000 nM, the “Log10 TGI50” value [6] was −6.03 and the GI50 [7] was 940 to 5240 nM. The GI50 [8, 27] was 430 nM, the GI50 [8, 28] was 437 nM and the CC50 [8, 29] was 8710 nM. The “Log10 TGI50” value [8] was −5.66, the “Log10 TGI50” value [9] was −6.15 and the GI50 [9, 27] was 250 nM. The GI50 [9, 28] was 251 nM, the LC50 [9, 29] was 5890 nM and the “Log10 TGI50” value [10] was −5.84. For the same molecule, the GI50 ([10]; Homo sapiens, U-251, read-out: Growth Inhibition GI50) was 340 nM, the GI50 ([10]; Homo sapiens, U-251, read-out: Log10 GI50 (converted)) was 339 nM and the CC50 ([10]; Homo sapiens, U-251, read-out: Log10 LC50 (converted)) was 8130 nM. The “Log10 TGI50” value [11] was −6.14, the GI50 [11, 30] was 220 nM and the GI50 [11, 31] was 229 nM. For the same molecule, the “Log10 TGI50” value [12] was −5.88, the GI50 [12, 30] was 380 nM and the GI50 [12, 31] was 389 nM. For the same molecule, the “Log10 TGI50” value [13] was −6.05, the GI50 [13, 30] was 290 nM and the GI50 [13, 31] was 295 nM. For the same molecule, the “Log10 TGI50” value [14] was −6.15, the GI50 [14, 30] was 280 nM and the GI50 [14, 31] was 282 nM. For the same molecule, the GI50 [15] was 3550 to 52800 nM, the “Log10 TGI50” value [16] was −5.72 and the GI50 [16, 30] was 460 nM. The GI50 [16, 31] was 468 nM, the “Log10 TGI50” value [17] was −6.03 and the GI50 [17, 30] was 290 nM. The GI50 [17, 31] was 302 nM, the “Log10 TGI50” value [18] was −5.87 and the GI50 ([18]; Homo sapiens, IGROV-1, read-out: Growth Inhibition GI50) was 400 nM. The GI50 ([18]; Homo sapiens, IGROV-1, read-out: Log10 GI50 (converted)) was 398 nM, the CC50 ([18]; Homo sapiens, IGROV-1, read-out: Log10 LC50 (converted)) was 5370 nM and the GI50 [19, 27] was 300 nM. For the same molecule, the GI50 [19, 28] was 302 nM, the CC50 [19, 29] was 4790 nM and the “Log10 TGI50” value [19] was −6.06. The “Log10 TGI50” value [20] was −5.62, the GI50 [20, 27] was 520 nM and the GI50 [20, 28] was 525 nM. The CC50 [20, 29] was greater than 100000 nM, the GI50 [21, 27] was 230 nM and the GI50 [21, 28] was 234 nM. The CC50 [21, 29] was 3470 nM, the “Log10 TGI50” value [21] was −6.05 and the GI50 [22, 27] was 330 nM. The GI50 [22, 28] was 339 nM, the CC50 [22, 29] was greater than 100000 nM and the “Log10 TGI50” value [22] was −5.46. For the same molecule, the GI50 [23] was 1480 to 8780 nM, the “Log10 TGI50” value [24] was −5.75 and the GI50 [24, 27] was 380 nM. For the same molecule, the GI50 [24, 28] was 380 nM, the CC50 [24, 29] was greater than 100000 nM and the GI50 [25, 30] was 270 nM. It also gave a GI50 [25, 31] of 275 nM, a CC50 ([25]; read-out: Log10 LC50 (converted)) greater than 100000 nM and a GI50 [26, 30] of 410 nM. The GI50 [26, 31] was 417 nM and the “Log10 TGI50” value [26] was −5.80.
